According to patent EP1166781A1, “PROTEASOME INHIBITORS” (KYOWA HAKKO KOGYO CO., LTD., priority 1999, dated 2000):
Like-named read-outs stand apart in the source and are kept apart here.

Assays:
[1] = test system: Human colon cancer, WiDr cells; assay: Antiproliferative activity in WiDr cells (MTT, 72 hours); format: cell-based
Protocol: Human colon cancer, WiDr cells suspended in MEM media containing 10% of fetal calf serum were seeded in 96-well microtiter plates at 2 x 10^3cells/well, and precultured in an incubator with 5% of CO2 at 37°C for 24 hours. Then, each compound diluted appropriately with the media was added into the well at 50 µl/well. At this time, a final concentration of each compound is up to 100 µmol/l or 1 µmol/l. The cells were cultured in the incubator with 5% of CO2 at 37°C for additional 72 hours. At 5 hours before the culturing was terminated, MTT [3-(4,5-dimethylthiazol-2-yl)-2,5-[…] bromide] dissolved in the medium at a final concentration of 1 mg/mL was added into the well at 50 µl/well. After the culturing, dimethyl sulfoxide was added to the well at 150 µl/well, and the plate was vigorously stirred using a plate mixer to dissolve crystals of MTT-formazan completely. […]

proteasome = molecular target: T1, proteasome (Homo sapiens, UniProt P28074); assay: Proteasome inhibitory activity (Suc-Leu-Leu-Val-Tyr-AMC cleavage, crude enzyme solution from HeLa S3 cell extract); format: biochemical
T1 construct: The obtained high molecular fraction (molecular weight >500K) was used as an enzyme solution for the detection of proteasome activity; endogenous in cells; host or cells: HeLa S3 cells: homogenate, 100,000G supernatant, >500K fraction from Centricon-500
Protocol: 1 x 10^9 of HeLa S3 cells were dispersed in 5 ml of the buffer A [20 mmol/L of Tris (pH 7.5), 2 mmol/L of ATP, 5 mmol/L of MgCl2, 1 mmol/L of dithiothreitol (DTT)], and then homogenized at 4°C. The supernatant centrifuged at 100,000G was concentrated by a Centricon-500 (supplied by Amicon) and diluted with 2.5 ml of the buffer B [25 mmol/L of Tris/HCl (pH 7.5), 2 mmol/L of ATP, 1 mmol/L of DTT, 20% of glycerol]. The obtained high molecular fraction (molecular weight >500K) was used as an enzyme solution for the detection of proteasome activity. Suc-Leu-Leu-Val-Tyr-AMC [Suc: Succinyl; AMC: Aminomethylcoumarin](supplied by Peptide Institute, Inc.) was used as a substrate for measuring inhibitory activity for proteasome (stored as a 2 mmol/L DMSO solution). The reaction was carried out by the following method using 96-well microtiter plates. To 96 µl of a reaction buffer [20 mmol/L of Tris/HCl (pH 8), 0.5 mmol/L of EDTA, 0.04% of sodium dodecylsulfate (SDS)] were added 1 µl of a drug solution (DMSO) and 2 µl of an enzyme solution followed by adding 1 µl of a substrate solution thereto, and then the mixture was incubated at 37°C for one hour. […]

[2] = crude proteasome fraction (>500K) from HeLa S3 cells, substrate Suc-Leu-Leu-Val-Tyr-AMC, 37°C for one hour, read-out: IC50
[3] = crude proteasome fraction (>500K) from HeLa S3 cells, substrate Suc-Leu-Leu-Val-Tyr-AMC, 37°C for one hour

| Structure (SMILES) | IC50 [1] [nM] | IC50 (proteasome; [2]) [nM] | IC50 (proteasome) [nM] | IC50 (proteasome; [3]) [nM] |
| --- | --- | --- | --- | --- |
| CCC(C)C1C(=O)OC1C(=O)NC1CC1CC(NC(=O)C(C)NC(=O)OC(C)(C)C)C(=O)OC (centres unmarked) [Compound 1] | 790 |  | 50 |  |
| CCC(C)C1C(=O)OC1C(=O)NC1CC1CC(NC(=O)C(C)N)C(=O)OCc1ccc2ccccc2c1 (centres unmarked) [Compound 6] | 40 | 38 |  |  |
| CCC(C)C1C(=O)OC1C(=O)NC1CC1CC(NC(=O)C(C)NC(=O)OC(C)(C)C)C(=O)OCc1cccc(F)c1 (centres unmarked) [Compound 8] |  | 14 |  |  |
| CCCCOC(=O)C(CC1CC1NC(=O)C1OC(=O)C1C(C)CC)NC(=O)C(C)NC(=O)OC(C)(C)C (centres unmarked) [Compound 11] | 10 | 19 |  |  |
| CCC(C)C1C(=O)OC1C(=O)NC1CC1CC(NC(=O)C(C)NC(=O)OC(C)(C)C)C(=O)OC(C)(C)C (centres unmarked) [Compound 13] | 490 | 30 |  |  |
| CCC(C)C1C(=O)OC1C(=O)NC1CC1CC(NC(=O)C(C)NC(=O)OC(C)(C)C)C(=O)OCC1CCCCC1 (centres unmarked) [Compound 14] | 300 |  |  | 18 |
| CCC(C)C1C(=O)OC1C(=O)NC1CC1CC(NC(=O)C(C)NC(=O)OC(C)(C)C)C(=O)OCC[Si](C)(C)C (centres unmarked) [Compound 15] | 200 |  | 18 |  |
| CCC(C)C1C(=O)OC1C(=O)NC1CC1CC(NC(=O)C(C)NC(=O)OC(C)(C)C)C(=O)OCCO (centres unmarked) [Compound 16] | 950 | 52 |  |  |
| CCC(C)C1C(=O)OC1C(=O)NC1CC1CC(NC(=O)C(C)NC(=O)OC(C)(C)C)C(=O)OCOC (centres unmarked) [Compound 17] | 180 | 19 |  |  |
| CCC(C)C1C(=O)OC1C(=O)NC1CC1CC(NC(=O)C(C)NC(=O)OC(C)(C)C)C(=O)NCc1cccc2ccccc12 (centres unmarked) [Compound 21] | 520 |  | 4 |  |
| CCC(C)C1C(=O)OC1C(=O)NC1CC1CC(NC(=O)C(C)N)C(=O)NCc1cccc2ccccc12 (centres unmarked) [Compound 22] | < 41 | 12 |  |  |
| CCC(C)C1C(=O)OC1C(=O)NC1CC1CC(NC(=O)C(C)NC(=O)OC(C)(C)C)C(=O)NNc1ccccc1 (centres unmarked) [Compound 23] | 410 |  | 17 |  |
| CCCCNC(=O)C(CC1CC1NC(=O)C1OC(=O)C1C(C)CC)NC(=O)C(C)NC(=O)OC(C)(C)C (centres unmarked) [Compound 24] | 20 |  | 15 |  |
| CCCCNC(=O)C(CC1CC1NC(=O)C1OC(=O)C1C(C)CC)NC(=O)C(C)N (centres unmarked) [Compound 25] | 59 |  | 24 |  |
| CCC(C)C1C(=O)OC1C(=O)NC1CC1CC(NC(=O)C(C)NC(=O)OC(C)(C)C)C(=O)N1CCOCC1 (centres unmarked) [Compound 26] | 160 | 13 |  |  |
| CCC(C)C1C(=O)OC1C(=O)NC1CC1CC(NC(=O)C(C)NC(=O)OC(C)(C)C)C(=O)N[C@@H](C)C(=O)OCc1ccccc1 (some centres unmarked) [Compound 27] |  |  | 3 |  |
| CCC(C)C1C(=O)OC1C(=O)NC1CC1CC(NC(=O)C(C)NC(=O)OCc1ccccc1)C(=O)OCc1ccccc1 (centres unmarked) [Compound 28] | 93 | 5 |  |  |
| CCC(C)C1C(=O)OC1C(=O)NC1CC1CC(NC(=O)C(C)NC(=O)OCc1ccc(Br)cc1)C(=O)OCc1ccccc1 (centres unmarked) [Compound 29] |  | 5 |  |  |

| Structure (SMILES) | IC50 [1] [nM] | IC50 (proteasome; [2]) [nM] | IC50 (proteasome) [nM] | IC50 (proteasome; [3]) [nM] |
| --- | --- | --- | --- | --- |
| CCC(C)C1C(=O)OC1C(=O)NC1CC1CC(NC(=O)C(C)NC(=O)NCc1ccccc1)C(=O)OCc1ccccc1 (centres unmarked) [Compound 30] | 64 | 4 |  |  |
| CCC(C)C1C(=O)OC1C(=O)NC1CC1CC(NC(=O)C(C)NC(=O)NC(C)C)C(=O)OCc1ccccc1 (centres unmarked) [Compound 31] | 113 | 11 |  |  |
| CCC(C)C1C(=O)OC1C(=O)NC1CC1CC(NC(=O)C(C)NC(=O)c1ccccc1)C(=O)OCc1ccccc1 (centres unmarked) [Compound 33] | 76 | 15 |  |  |
| CCC(C)C1C(=O)OC1C(=O)NC1CC1CC(NC(=O)C(C)NC=O)C(=O)OCc1ccccc1 (centres unmarked) [Compound 34] | 1200 | 38 |  |  |
| CCC(C)C1C(=O)OC1C(=O)NC1CC1CC(NC(=O)C(C)NC(C)=O)C(=O)OCc1ccccc1 (centres unmarked) [Compound 35] | 93 | 27 |  |  |
| CCC(C)C1C(=O)OC1C(=O)NC1CC1CC(NC(=O)C(C)NC(=O)c1cnccn1)C(=O)OCc1ccccc1 (centres unmarked) [Compound 36] | 62 | 21 |  |  |
| CCC(C)C1C(=O)OC1C(=O)NC1CC1CC(NC(=O)C(C)NC(=O)CO[Si](C)(C)C(C)(C)C)C(=O)OCc1ccccc1 (centres unmarked) [Compound 37] | 5700 | 6 |  |  |
| CCC(C)C1C(=O)OC1C(=O)NC1CC1CC(NC(=O)C(C)N1C(=O)c2ccccc2C1=O)C(=O)OCc1ccccc1 (centres unmarked) [Compound 42] |  |  | 22 |  |
| CCC(C)C1C(=O)OC1C(=O)NC1CC1CC1NC(=O)C(C)NC1=O (centres unmarked) [Compound 44] |  |  |  | 47 |
| CC(C)CC1C(=O)OC1C(=O)NCC(NC(=O)OC(C)(C)C)C(=O)OCc1ccccc1 (centres unmarked) [Compound 47] |  |  |  | 150 |
| CC(C)CC1C(=O)OC1C(=O)NCCCCC(NC(=O)C(C)NC(=O)OC(C)(C)C)C(=O)OCc1ccccc1 (centres unmarked) [Compound 49] |  | 30 |  |  |
| CC(C)C[C@@H]1C(=O)O[C@H]1C(=O)NCCC[C@H](NC(=O)[C@H](C)NC(=O)OC(C)(C)C)C(=O)OCc1ccccc1 [Compound 59] |  | 33 |  |  |
| CC(C)CC1C(=O)OC1C(=O)NCCCC(NC(=O)C(C)N)C(=O)OCc1ccccc1 (centres unmarked) [Compound 60] |  | 40 |  |  |
| CC(C)=C[C@@H]1C(=O)O[C@H]1C(=O)NCCCC[C@H](NC(=O)[C@H](C)NC(=O)OC(C)(C)C)C(=O)NCc1cccc2ccccc12 [Compound 74] |  | 3 |  |  |
| CC(C)CC1C(=O)OC1C(=O)NCCCCC(NC(=O)C(C)NC(=O)OC(C)(C)C)C(=O)NCc1cccc2ccccc12 (centres unmarked) [Compound 75] |  | 1 |  |  |
| COc1ccc(CC(NC(=O)OC(C)(C)C)C(=O)OCc2ccccc2)cc1NC(=O)C1OC(=O)C1CC(C)C (centres unmarked) [Compound 81] |  |  |  | 500 |
| CC(C)C[C@@H]1C(=O)O[C@H]1C(=O)Nc1cc(C[C@H](NC(=O)OC(C)(C)C)C(=O)OCc2ccccc2)ccc1OCc1ccccc1 [Compound 82] |  | 100 |  |  |

Continued by falling IC50 (proteasome; [2]), values first:

| IC50 [1] [nM] | IC50 (proteasome; [2]) [nM] | Structure (SMILES) | IC50 (proteasome) [nM] | IC50 (proteasome; [3]) [nM] |
| --- | --- | --- | --- | --- |
|  | 250 | CC(C)CC1C(=O)OC1C(=O)NCCCCCNC(=O)C(C)NC(=O)OC(C)(C)C (centres unmarked) [Compound 53] |  |  |
|  | 77 | CC(C)CC1C(=O)OC1C(=O)NCCCCCC(=O)OCc1ccccc1 (centres unmarked) [Compound 55] |  |  |
|  | 70 | CCC(C)C1C(=O)OC1C(=O)NC1CC1CC(NC(=O)C(C)N)C(=O)OC (centres unmarked) [Compound 2] |  |  |
| < 41 | 51 | CCCCOC(=O)C(CC1CC1NC(=O)C1OC(=O)C1C(C)CC)NC(=O)C(C)N (centres unmarked) [Compound 12] |  |  |
|  | 50 | CC(C)CC1C(=O)OC1C(=O)NCCCCC(NC(=O)OC(C)(C)C)C(=O)OCc1ccccc1 (centres unmarked) [Compound 48] |  |  |
|  | 47 | CC(C)CC1C(=O)OC1C(=O)NCCCCCNC(=O)C1C(OCc2ccccc2)CCN1C(=O)OC(C)(C)C (centres unmarked) [Compound 54] |  |  |
| 68 | 46 | C=CCOC(=O)C(CC1CC1NC(=O)C1OC(=O)C1C(C)CC)NC(=O)C(C)N (centres unmarked) [Compound 10] |  |  |
| 10 | 26 | C=CCOC(=O)C(CC1CC1NC(=O)C1OC(=O)C1C(C)CC)NC(=O)C(C)NC(=O)OC(C)(C)C (centres unmarked) [Compound 9] |  |  |
|  | 26 | CC(C)CC1C(=O)OC1C(=O)NCCCC(NC(=O)OC(C)(C)C)C(=O)OCc1ccccc1 (centres unmarked) [Compound 58] |  |  |
| 700 | 17 | CCC(C)C1C(=O)OC1C(=O)NC1CC1CC(NC(=O)C(C)NC(=O)OC(C)(C)C)C(=O)OCc1c2ccccc2cc2ccccc12 (centres unmarked) [Compound 7] |  |  |
| 37 | 15 | CCC(C)C1C(=O)OC1C(=O)NC1CC1CC(NC(=O)C(C)NC(=O)OC(C)(C)C)C(=O)OCc1ccccc1 (centres unmarked) [Compound 3] |  |  |
| 200 | 12 | CCC(C)C1C(=O)OC1C(=O)NC1CC1CC(NC(=O)C(C)NC(=O)OC(C)(C)C)C(=O)OCC(=O)c1ccccc1 (centres unmarked) [Compound 18] |  |  |
| 57 | 11 | CCC(C)C1C(=O)OC1C(=O)NC1CC1CC(NC(=O)C(C)N)C(=O)NCc1ccccc1 (centres unmarked) [Compound 20] |  |  |
| 30 | 6.2 | CCC(C)C1C(=O)OC1C(=O)NC1CC1CC(NC(=O)C(C)NC(=O)OC(C)(C)C)C(=O)OCc1ccc2ccccc2c1 (centres unmarked) [Compound 5] |  |  |
| 190 | 6.2 | CCC(C)C1C(=O)OC1C(=O)NC1CC1CC(NC(=O)C(C)NC(=O)OC(C)(C)C)C(=O)NCc1ccccc1 (centres unmarked) [Compound 19] |  |  |
| 433 | 5 | CCC(C)C1C(=O)OC1C(=O)NC1CC1CC(NC(=O)C(C)NC(=S)NCc1ccccc1)C(=O)OCc1ccccc1 (centres unmarked) [Compound 32] |  |  |
